Laboratory results taken from patent publication US20220372013A2, “PIPERIDINE-2,6-DIONE DERIVATIVES AND CROHN'S DISEASE TREATING” (Tianjin Hemay Pharmaceutical Sci-Tech Co., Ltd, priority 2016, published 2022).
Read-outs that look alike come from different tables or passages of the source.

Columns and labels:
[1] = tested on: DNBS-Induced Inflammatory Bowel Disease Models in Rats; assay: Biological Example 1: DNBS-induced inflammatory bowel disease models in rats; assay type: in vivo, Wistar rats; settings: for Adhesion Degree / Colon MPO Activity / Colon Weight / Colon weight to length ratio / Ulcer Area: sixth day, Mean ± SD
Description: Wistar rats, male, body weight of 100-120 g.
90 male Wistar rats were fasted for 40 hours. A 5% glucose injection was administered subcutaneously during fasting. 60 rats with normal conditions and moderate body weight were selected from the fasting rats. The animals were randomly divided into 6 groups according to the body weight: normal control group, model control group, sulfasalazine group (300 mg/Kg), and the compound in Example 27 groups consisting of 5, 15 and 30 mg/Kg dose groups. There were 10 rats in each group. The animals were anesthetized with ether. A specially made gavage device (made by a rat gavage device having the diameter of 2 mm, which was nested on a mouse gavage device having the diameter of 1 mm) was slowly inserted into the enteric cavity at 8 cm from the anus. The model control group, the sulfasalazine group and the compound in Example 27 groups were administered with 0.5 mL of 50 mg/mL DNBS in 30% ethanol solution. The normal control group was administered with 0.5 mL of 30% ethanol solution. The animals were inverted in anesthesia for 15 minutes after the gavage device was removed. The day when the model was prepared was the first day of the experiment. After 4 hours of DNBS induction, the corresponding drug or the corresponding volume of 1% CMC-Na was administered once per day. The body weights were recorded and the stool characteristics were scored. On the sixth day of the experiment colon tissues were taken from the animals to observe the results of each index.
The compound in Example 27 and sulfasalazine: Preparation Method: Suspended with 1% CMC-Na, and prepared when it was needed.
Animals were euthanized on the sixth day of the experiment to observe the results of each index. After the animals were sacrificed, colons were obtained. The adhesion degree of colon was observed and the length of the colon was measured. The ulcer area was calculated after removing the contents in the colon and the weight of the colon tissue was weighed. The colon tissue was longitudinally divided into two parts. One part of the colon tissue was fixed in 10% formalin solution for later use. The other part of the colon tissue was put into the liquid nitrogen to quickly frozen, and then was reserved at −80° C. for the detection of MPO.
Calculation method for ulcer area: length of ulcer point (cm)×width of ulcer point (cm).
The frozen tissue was ground into powder in liquid nitrogen. An appropriate amount of the powder was weighed and was added into 50 mM potassium phosphate solution (containing 0.5% cetyltrimethylammonium bromide) to give a 25 mg/mL solution. The resultant solution was homogenized by an electric homogenizer. 1 mL of suspension was centrifuged to give a supernatant. 7 μL of the supernatant was added into a 96-well plate and 200 μL of o-dianisidine mixture (containing 0.167 mg/mL o-dianisidine and 0.0006% H2O2 potassium phosphate buffer). OD values of the resultant solution at 0, 30, 60, and 90 s were detected at 450 nm of the microplate reader.
Test for homogeneity of variance was performed with Spss13.0. Where variance of data was homogeneous (P>0.05), one-way ANOVA LSD test was performed. Where the analysis of variance was significant (P<0.05), then Dunnett's multiple comparison (parameter method) or Kruskal-Wallis non-parametric test was performed. Where the results of Kruskal-Wallis non-parametric test were significant (P<0.05), the Mann-Whitney U test was performed for pairwise comparison.

[2] = tested on: DNBS-Induced Inflammatory Bowel Disease Models in Rats; assay: Biological Example 4: DNBS-induced inflammatory bowel disease models in rats; assay type: in vivo, Wistar rats; settings: 30 mg/Kg i.g. qd × 7; for Body weight: Mean ± SD; for inhibition in vivo at 30 mg/kg: Rattus norvegicus, po, 168 h
In short: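 Male Wistar rats fasted 72 h received intrarectal 0.5 mL of 50 mg/mL DNBS in 30% ethanol at 8 cm from the anus under ether anaesthesia. Dosing with drug or 1% CMC-Na vehicle began 4 h post-induction, once daily. On day 7, colon adhesion, length, ulcer area and weight-to-length ratio were assessed.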

In the case of COCCN1C(=O)CCC(N2C(=O)c3cccc(N)c3C2=O)C1=O (stereo not shown) [Example 27, 4-amino-2-(1-(2-methoxyethyl)-2,6-dioxopiperidin-3-yl)isoindolin-1,3-dione], the “Adhesion Degree” value ([1]; 5 mg/Kg i.g. qd × 6) was 0.4 ± 0.7 Point, the “Colon MPO Activity” value ([1]; 5 mg/Kg i.g. qd × 6) was 20.3 ± 19.8 U/mg and the “Colon Weight” value ([1]; 5 mg/Kg i.g. qd × 6) was 1775.7 ± 321.0 mg. For the same compound, the “Colon weight to length ratio” value ([1]; 5 mg/Kg i.g. qd × 6) was 144.2 ± 30.5 mg/cm, the “Ulcer Area” value ([1]; 5 mg/Kg i.g. qd × 6) was 0.8 ± 0.9 cm^2 and the “therapeutic effect (in words)” value ([1]; 5 mg/Kg, 15 mg/Kg and 30 mg/Kg) was “a certain dose effect and a good therapeutic effect without the weight loss of animals”. The “Adhesion Degree” value ([1]; 15 mg/Kg i.g. qd × 6) was 0.1 ± 0.3 Point, the “Colon MPO Activity” value ([1]; 15 mg/Kg i.g. qd × 6) was 16.7 ± 9.8 U/mg and the “Colon Weight” value ([1]; 15 mg/Kg i.g. qd × 6) was 1668.7 ± 245.3 mg. For the same compound, the “Colon weight to length ratio” value ([1]; 15 mg/Kg i.g. qd × 6) was 127.1 ± 13.7 mg/cm, the “Ulcer Area” value ([1]; 15 mg/Kg i.g. qd × 6) was 0.7 ± 0.9 cm^2 and the “Adhesion Degree” value ([1]; 30 mg/Kg i.g. qd × 6) was 0.1 ± 0.3 Point. For the same compound, the “Colon MPO Activity” value ([1]; 30 mg/Kg i.g. qd × 6) was 15.1 ± 13.0 U/mg, the “Colon Weight” value ([1]; 30 mg/Kg i.g. qd × 6) was 1534.7 ± 156.2 mg and the “Colon weight to length ratio” value ([1]; 30 mg/Kg i.g. qd × 6) was 117.7 ± 19.4 mg/cm. The “Ulcer Area” value ([1]; 30 mg/Kg i.g. qd × 6) was 0.3 ± 0.5 cm^2, the “reduction of the ulcer area” value ([1]; 30 mg/Kg, vs model control group) was “about 80%” and the “Colon weight to length ratio” value ([2]; day 7) was 106 ± 14 mg/cm. The “Ulcer area of colon” value ([2]; day 7) was 0.4 ± 0.6 cm^2, the Body weight ([2]; Day 1) was 125.5 ± 8.4 g and the Body weight ([2]; Day 2) was 124.4 ± 8.1 g. For the same compound, the Body weight ([2]; Day 3) was 125.8 ± 8.2 g, the Body weight ([2]; Day 4) was 133.1 ± 9.2 g and the Body weight ([2]; Day 5) was 141.6 ± 12.0 g. For the same compound, the Body weight ([2]; Day 6) was 146.7 ± 11.8 g, the Body weight ([2]; Day 7) was 156.3 ± 11.0 g and the inhibition in vivo at 30 mg/kg ([2]; day 7, read-out: Inhibitory rate of ulcer area of colon) was 83.3%. It also gave an inhibition in vivo at 30 mg/kg ([2]; day 7, read-out: Inhibitory rate of weight increase per length) of 65.9%.
